{"source": "patent US20250230511A1", "about": "“METHODS AND REAGENTS FOR […] VECTOR NUCLEIC ACID PRODUCTS” (Sana Biotechnology, Inc., priority 2021, published 2025)", "key": {"[1]": {"tested_on": "VSV-G pseudotyped lentiviral vector (VG)", "type": "cell-based"}, "[2]": {"tested_on": "VSV-G pseudotyped lentiviral vector (VG)", "type": "cell-based", "remark": "listed apart in the source"}}}
{"smiles": "Cc1ccnc2c1NC(=O)c1cccnc1N2C1CC1", "note": "[Nevirapine]", "values": [{"measurement": "determination of VCN based on assay of the WPRE amplicon", "setting": "[1]", "result": "not substantially impacted"}, {"measurement": "determination of VCN based on assay of the DelU3 amplicon", "setting": "[2]", "result": "completely ablated"}]}
